According to ChEMBL document CHEMBL2146358, “Discovery of amide based fibrates as possible antidyslipidemic and antioxidant agents” (2012):

Key:
Assay type in all cases: functional
Rattus norvegicus [1] = test: Antidyslipidemic activity in Triton fed hyperlipidemic Charles Foster rat assessed as reduction in plasma total cholesterol at 100 mg/kg, po; design: scale not given: the % may be the effect or the level left
Rattus norvegicus [2] = test: Antidyslipidemic activity in Triton fed hyperlipidemic Charles Foster rat assessed as reduction in plasma phospholipids at 100 mg/kg, po; design: scale not given: the % may be the effect or the level left
Rattus norvegicus [3] = test: Antidyslipidemic activity in Triton fed hyperlipidemic Charles Foster rat assessed as reduction in plasma triglyceride level at 100 mg/kg, po; design: scale not given: the % may be the effect or the level left
Rattus norvegicus [4] = test: Antidyslipidemic activity in Triton fed hyperlipidemic Charles Foster rat assessed as increase in post heparin lipoprotein lipase activity by measuring free fatty acids formation rate per ml of plasma at 100 mg/kg, po
Rattus norvegicus [5] = species: Rattus norvegicus; test: Increase in lipoprotein lipase activity in Triton fed hyperlipidemic Charles Foster rat plasma assessed as free fatty acids formation rate per ml of plasma relative to untreated Triton control; design: concentration or dose not given beside the values
[6] = Antioxidant activity assessed as inhibition of superoxide anion radical generation at 200 ug/ml by spectrophotometry
[7] = Antioxidant activity assessed as inhibition of hydroxyl radical generation at 200 ug/ml by spectrophotometry
[8] = Antioxidant activity in microsomes assessed as inhibition of lipid peroxidation by measuring MDA level at 200 ug/ml by spectrophotometry based TBARS method

Row | SMILES | Activity (Rattus norvegicus [1]) [%] | Activity (Rattus norvegicus [2]) [%] | Activity (Rattus norvegicus [3]) [%] | Activity (Rattus norvegicus [4]) [%] | Activity (Rattus norvegicus [5]) [%] | inhibition [6] [%] | inhibition [7] [%] | inhibition [8] [%]
1 | CCOC(=O)CCCOc1ccc(NC(=O)COc2ccccc2C(C)CC)cc1 (stereo not drawn) | 9 | 10 | 11 | 13 |  |  |  | 
2 | CCOC(=O)COc1ccc(NC(=O)COc2ccccc2Cl)cc1 | 6 | 9 | 6 | 9 |  |  |  | 
3 | CCOC(=O)C(C)Oc1ccc(NC(=O)COc2ccccc2C(C)CC)cc1 (stereo not drawn) | 24 | 23 | 24 | 15 | 16 | 25 | 25 | 25
4 | CCOC(=O)C(CC)Oc1ccc(NC(=O)COc2ccccc2C(C)CC)cc1 (stereo not drawn) | 10 | 9 | 9 | 5 |  |  |  | 
5 | CCOC(=O)COc1ccc(NC(=O)COc2ccc3ccccc3c2)cc1 | 14 | 14 | 11 | 15 |  |  |  | 
6 | CCOC(=O)C(C)Oc1ccc(NC(=O)COc2ccccc2Cl)cc1 (stereo not drawn) | 25 | 26 | 25 | 23 | 21 | 33 | 26 | 26
7 | CCOC(=O)C(CC)Oc1ccc(NC(=O)COc2ccc3ccccc3c2)cc1 (stereo not drawn) | 12 | 9 | 13 | 12 |  |  |  | 
8 | Oc1ncnc2[nH]ncc12 |  |  |  |  |  | 41 |  | 
9 | CCOC(=O)CCCOc1ccc(NC(=O)COc2ccc3ccccc3c2)cc1 | 21 | 19 | 22 | 17 |  | 27 | 25 | 29
10 | CCOC(=O)CCCOc1ccc(NC(=O)COc2ccc(Cl)cc2Cl)cc1 | 9 | 8 | 7 | 12 |  |  |  | 
11 | CCOC(=O)C(C)(C)Oc1ccc(NC(=O)COc2ccccc2C(C)CC)cc1 (stereo not drawn) | 7 | 10 | 6 | 14 |  |  |  | 
12 | OC[C@@H](O)[C@@H](O)[C@H](O)[C@H](O)CO |  |  |  |  |  |  | 41 | 
13 | CCOC(=O)C(C)Oc1ccc(NC(=O)CSc2ccc3ccccc3c2)cc1 (stereo not drawn) | 26 | 24 | 28 | 24 | 26 | 31 | 28 | 35
14 | Cc1c(C)c2c(c(C)c1O)CC[C@@](C)(CCC[C@H](C)CCC[C@H](C)CCCC(C)C)O2 |  |  |  |  |  |  |  | 49
15 | CCOC(=O)C(CC)Oc1ccc(NC(=O)CSc2ccc3ccccc3c2)cc1 (stereo not drawn) | 6 | 4 | 5 | 7 |  |  |  | 
16 | CCOC(=O)C(CC)Oc1ccc(NC(=O)COc2ccc(Cl)cc2Cl)cc1 (stereo not drawn) | 2 | 3 | 5 | 4 |  |  |  | 
17 | CCOC(=O)C(C)Oc1ccc(NC(=O)COc2ccc3ccccc3c2)cc1 (stereo not drawn) | 23 | 25 | 26 | 26 | 24 | 25 | 25 | 22
18 | CCOC(=O)C(C)Oc1ccc(NC(=O)COc2ccc(Cl)cc2Cl)cc1 (stereo not drawn) | 8 | 7 | 10 | 10 |  |  |  | 
19 | CCOC(=O)C(C)(C)Oc1ccc(NC(=O)COc2ccc3ccccc3c2)cc1 | 25 | 24 | 27 | 23 | 22 | 30 | 22 | 22
20 | Cc1ccc(C)c(OCCCC(C)(C)C(=O)O)c1 [GEMFIBROZIL] | 31 | 33 | 33 | 31 | 30 |  |  | 
21 | CCOC(=O)CCCOc1ccc(NC(=O)COc2ccccc2Cl)cc1 | 9 | 6 | 8 | 12 |  |  |  | 
22 | CCOC(=O)C(C)(C)Oc1ccc(NC(=O)COc2ccc(Cl)cc2Cl)cc1 | 8 | 4 | 13 | 9 |  |  |  | 
